Test results published in patent US20260284051A1, “METHIONINE ADENOSYLTRANSFERASE 2A (MAT2A) INHIBITOR COMBINATIONS AND USES THEREOF” (INSILICO MEDICINE IP LIMITED, priority 2023, published 2026).
pIC50: −log10 of the molar value.

Key:
KP4 MTAP null xenografts = experiment: Efficacy study of KP-4 human pancreatic cancer xenograft model in NOD SCID mice; assay type: in vivo; settings: for Tumor volume (mm^3) Final (mean): Mean ± SD
Protocol: Efficacy Study of KP-4 Human Pancreatic Cancer Xenograft Model in NOD SCID Mice
The KP-4 tumor cell line was maintained in vitro as monolayer culture in RPMI 1640 medium supplemented with 10% fetal bovine serum at 37° C. in an atmosphere of […] in air. The tumor cells were routinely subculture weekly by trypsin-EDTA treatment, not to exceed 4-5 passages. The cells growing in an exponential growth phase was harvested and counted for tumor inoculation.
Each mouse was inoculated subcutaneously on the central right flank with KP-4 tumor cells (1×10^7) in 0.1 mL of RPMI-1640 without serum for the tumor development. The treatment started when the mean tumor size reached approximately 100 mm^3. Mice were assigned to groups such that the mean tumor volume is the same for each treatment group and time point.
For routine monitoring, all study animals were monitored for not only tumor growth but also behavior such as mobility, food, and water consumption (by cage side checking only), body weight (BW), eye/hair matting and any other abnormal effect. Any mortality and/or abnormal clinical signs were recorded.
Body weights of all animals were measured twice a week throughout the study. Body weight change, expressed in %, will be calculated using the following formula: BW change (%)=(BWDay x/BWDay 0)×100, where BWDay x is BW on a given day, and BWDay 0 is BW on Day 0 (initiation of treatment).
The measurement of tumor size were conducted twice a week with a caliper and the tumor volume (mm^3) was estimated using the formula: TV=a×b^2/2, where a and b are long and short diameters of a tumor, respectively. The TVs were used for calculation of the tumor growth inhibition (TGI, an indicator of antitumor effectiveness) value using the formula: TGI (%)=[1−(Tn−T0)/(Cn−C0)]×100%, only over the dosing period (dosing days 0 to days n). Where: Tn—is the avg tumor volume at the respective day “n” after dosing throughout treatment period; T0—is the avg tumor volume in the treatment group at day 0 before treatment (immediately before); Cn—avg tumor volume in the control group at the respective day “n” after dosing throughout treatment period; and C0—average tumor volume in the control group at day 0 before treatment (immediately before). The experiment was terminated when the mean tumor volume exceeded 2000 mm^3 or severe body weight loss.
The statistical software GraphPad Prism (version number: 8) was used to analyze the difference in tumor volume between the treatment group and the solvent control group. Two-way ANOVA and Bonferroni multiple tests were used to compare whether there was a significant difference in tumor volume between the vehicle control group and each treatment group during the administration period.
Mean tumor volume at dosing start was approximately 102 mm^3, with ten mice randomized to each treatment group. In the KP4 MTAP null tumor model, mice were dosed orally, once per day (QD) with Vehicle, once per day (QD) with Compound 1 at 1, 3 mg/kg, once per day (QD) with AG270 at 100 mg/kg, mice were intravenous, per week with Docetaxel at 2.5 mg/kg, or Compound 1 combined with Docetaxel at each dose level.

[1] = tested on: NCI-H838 MTAP null xenografts; experiment: Efficacy study of NCI-H838 human lung cancer xenograft model in NOD SCID mice; assay type: in vivo; settings: for Tumor volume (mm^3) Final (mean): Mean ± SD
Description: Efficacy Study of NCI-H838 Human Lung Cancer Xenograft Model in NOD SCID Mice Methods:
The NCI-H838 cancer cells were maintained in vitro with RPMI-1640 medium supplemented with 10% fetal bovine serum at 37TC in an atmosphere of 5% CO2 in the air. The cells in exponential growth phase were harvested and quantitated by cell counter before tumor inoculation.
NOD SCID mice, female, 6-8 weeks, weighing approximately 20-22 g, All the mice were purchased from Shanghai Lingchang Bio-Tech Co., Ltd.
Each mouse was inoculated subcutaneously at the right flank with NCI-H838 cells in a 0.1 mL of PBS mixed with Matrigel (1:1) for tumor development (5×10^6 cells/mouse). Dosing was started when the average tumor size reached approximately ~150 mm^3 for the tumor efficacy study with tool and med chem molecules to look for efficacy vs vehicle tumor growth.
Mean tumor volume at dosing start was approximately 146.51 mm^3, with six mice randomized to each treatment group. In the NCI-H838 MTAP null tumor model, mice were dosed orally, once per day (QD) with vehicle, once per day (QD) with Compound 1 at 3, 10 mg/kg, mice were intravenous, once per day (QD) with PRMT5 inhibitor MRTX1719 at 50 mg/kg, or Compound 1 combined with MRTX1719 at each dose level.

MAT2A = MAT2A (Homo sapiens, UniProt P31153); experiment: MAT2A Biochemical Assay; settings: read-out: MAT2A enzymatic IC50
Sequence of MAT2A (P31153 whole entry, species assumed): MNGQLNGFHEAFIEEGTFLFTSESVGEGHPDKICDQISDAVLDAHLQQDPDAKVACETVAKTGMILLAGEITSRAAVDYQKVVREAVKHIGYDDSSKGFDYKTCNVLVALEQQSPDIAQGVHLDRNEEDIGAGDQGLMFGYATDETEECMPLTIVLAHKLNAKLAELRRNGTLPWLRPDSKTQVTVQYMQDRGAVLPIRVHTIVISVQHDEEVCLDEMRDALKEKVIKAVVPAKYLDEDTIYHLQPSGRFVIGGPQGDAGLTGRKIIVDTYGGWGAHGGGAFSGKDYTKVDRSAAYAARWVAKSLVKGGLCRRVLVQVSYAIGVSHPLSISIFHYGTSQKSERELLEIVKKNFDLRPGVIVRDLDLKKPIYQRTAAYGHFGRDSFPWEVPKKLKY
Protocol: Example A: MAT2A Biochemical Assay
Compounds described herein were tested as follows:
• (1). Prepared 1×Assay buffer. • (2). Preparation of compound concentration gradient: the compounds test condition were […], 3-fold dilution, 10 doses, singlet or duplicate. 100x concentration compounds were prepared in 384-well plate. Then used Echo 550 to transfer 250 nl to a 384-reaction plate for later use. Added 250 nl of 100% DMSO to the negative and positive control wells. • (3). Prepared 1.67× final concentration enzyme solution with 1×Assay buffer. • (4). Added 15 μl of 1.67× Enzyme solution to the compound wells and positive control wells; added 15 μl of 1×Assay buffer to the negative control wells. • (5). Centrifuged at 1000 rpm for 30 seconds and incubate for 15 minutes. • (6). Prepared 2.5× final concentration Substrate mix solution with 1×Assay buffer. • (7). Added 10 μl of 2.5× final concentration Substrate mix solution to start the reaction. • (8). Centrifuged at 1000 rpm for 30 seconds and incubate for 150 minutes. • (9). Added […] Biomol Green to stop the reaction, centrifuge at 1000 rpm for 30 seconds and incubate for 15 minutes. read O.D.620, process data.
• (1) Using GraphPad Prism 5.
[formula] • (3) Max signal was obtained from the positive control wells. • (4) Min signal was obtained from the negative control wells.

[2] = combination: Compound 1 3 mg/kg QD + MRTX1719 50 mg/kg QD
[3] = combination: Compound 1 10 mg/kg QD + MRTX1719 50 mg/kg QD

C#CCNc1nc(=O)n(-c2cccnc2C)c2cc(C(F)(F)F)cc(OC)c12 [Example 36, 5-methoxy-1-(2-methylpyridin-3-yl)-4-(prop-2-yn-1-ylamino)-7-(trifluoromethyl)quinazolin-2(1H)-one]
TGI (%) (KP4 MTAP null xenografts; Compound 1 1 mg/kg orally QD): 36.8% | Tumor volume (mm^3) Final (mean) (KP4 MTAP null xenografts; Compound 1 1 mg/kg orally QD): 1,484 ± 263 mm^3 | TGI (%) (KP4 MTAP null xenografts; Compound 1 3 mg/kg orally QD): 53.4% | Tumor volume (mm^3) Final (mean) (KP4 MTAP null xenografts; Compound 1 3 mg/kg orally QD): 1,121 ± 181 mm^3 | effect on tumor growth (in words) (KP4 MTAP null xenografts; combination of Compound 1 (1, 3 mg/kg) and Docetaxel 2.5 mg/kg): significantly inhibited tumor growth in a dose dependent manner | Tumor volume (mm^3) Final (mean) (KP4 MTAP null xenografts; combination: Compound 1 1 mg/kg QD + Docetaxel 2.5 mg/kg per week): 767 ± 101 mm^3 | TGI (%) (KP4 MTAP null xenografts; combination: Compound 1 1 mg/kg QD + Docetaxel 2.5 mg/kg per week, listed as Compound 1): 69.6% | Tumor volume (mm^3) Final (mean) (KP4 MTAP null xenografts; combination: Compound 1 3 mg/kg QD + Docetaxel 2.5 mg/kg per week): 686 ± 80 mm^3 | TGI (%) (KP4 MTAP null xenografts; combination: Compound 1 3 mg/kg QD + Docetaxel 2.5 mg/kg per week, listed as Compound 1): 73.2% | TGI (%) ([1]; Compound 1 3 mg/kg orally QD): 1.6% | Tumor volume (mm^3) Final (mean) ([1]; Compound 1 3 mg/kg orally QD): 2029 ± 239 mm^3 | TGI (%) ([1]; Compound 1 10 mg/kg orally QD): 19.9% | Tumor volume (mm^3) Final (mean) ([1]; Compound 1 10 mg/kg orally QD): 1678 ± 113 mm^3 | effect on tumor growth (in words) ([1]; combination of Compound 1 (3, 10 mg/kg) and MRTX1719 50 mg/kg): significantly inhibited tumor growth | synergy effect ([1]; combination: Compound 1 3 mg/kg + MRTX1719 50 mg/kg): 1.02 | TGI (%) [1, 2]: 83.2% | Tumor volume (mm^3) Final (mean) [1, 2]: 468 ± 115 mm^3 | synergy effect ([1]; combination: Compound 1 10 mg/kg + MRTX1719 50 mg/kg): 1.21 | TGI (%) [1, 3]: 103.1% | Tumor volume (mm^3) Final (mean) [1, 3]: 88 ± 7 mm^3 | pIC50 (MAT2A): > 7.30
